B2: cYFP-HDA19 (C-terminal half of YFP fused to A. thaliana HISTONE DEACETYLASE 19) (enzyme, Arabidopsis thaliana, UniProt O22446 1-501, looked up)
chain: MDTGGNSLASGPDGVKRKVCYFYDPEVGNYYYGQGHPMKPHRIRMTHALLAHYGLLQHMQVLKPFPARDRDLCRFHADDYVSFLRSITPETQQDQIRQLKRFNVGEDCPVFDGLYSFCQTYAGGSVGGSVKLNHGLCDIAINWAGGLHHAKKCEASGFCYVNDIVLAILELLKQHERVLYVDIDIHHGDGVEEAFYATDRVMTVSFHKFGDYFPGTGHIQDIGYGSGKYYSLNVPLDDGIDDESYHLLFKPIMGKVMEIFRPGAVVLQCGADSLSGDRLGCFNLSIKGHAECVKFMRSFNVPLLLLGGGGYTIRNVARCWCYETGVALGVEVEDKMPEHEYYEYFGPDYTLHVAPSNMENKNSRQMLEEIRNDLLHNLSKLQHAPSVPFQERPPDTETPEVDEDQEDGDKRWDPDSDMDVDDDRKPIPSRVKREAVEPDTKDKDGLKGIMERGKGCEVEVDESGSTKVTGVNPVGVEEASVKMEEEGTNKGGAEQAFPPKT
notes: expressed transiently in tobacco leaf cells; not shown: C-terminal half of YFP (cYFP) from vector pBiFCt-2in1-NN

Key:
A. thaliana seeds = assay: Germination assay on agar plates (seedlings with green cotyledons on day 6 after sowing); assay type: in vivo, Arabidopsis thaliana; conditions: for cumulative germination rate: increasing concentrations in agar, all lines (wildtype, hdc1-1, HDC1-OX), scored after 6 days
Protocol: (§1) All experiments were carried out in controlled growth rooms at a temperature of 20-22° C. and a light intensity of 120-150 μmol PAR. Plants were grown either in long days (16 h light) or in short days (10 h light) as indicated in text and figure legends. Seeds of A. thaliana wildtype and transgenic lines were sterilized, stratified and germinated on soil or on agar plates. Agar plates contained half strength Murashige & Skoog (MS) media with 1% sucrose and 0.8% agar at pH 5.7. For germination assays media were supplemented with NaCl, ABA (cat. A1049,SIGMA), PAC (Fluka cat. 46046) or TSA (SIGMA cat.T8852) at the concentrations given in the figures. Germination rate was scored on day 6 after sowing by counting seedlings that had developed green cotyledons. Experiments with adult plants were carried out on soil or in hydroponic culture. For the latter, seeds were germinated on agar plates and 2-3 weeks old seedlings were placed perforated lids of black 1-litre plastic containers. The growth medium consisted in a minimal sufficient nutrient medium (Kellermeier et al., 2013, PLoS Genet. 7). For salt treatment NaCl powder was stirred directly into the growth container to obtain the desired concentration (as stated in the figures). Control media were stirred without adding NaCl. For controlled drought experiments, plants were grown on soil in pots according to a randomized design. Using previously reported methodology (Granier et al., 2006, New Phytologist 169:623-635; Skirycz et al., 2011, Nat. Biotech. 29:212-214), controlled watering was used to impose moderate water stress. After 14 days of plant growth in well-watered soil, watering was reduced so that the relative soil water content of the stressed plants was maintained at 50% of the normal watering regime. Control plants were watered normally.
Germinating seeds arrest growth and development if they encounter low water potentials in the environment (Finkelstein et al., 2008, In Annual Review of Plant Biology (Palo Alto: Annual Reviews), pp. 387-415). The post-imbibition response is mediated by ABA and can be mimicked by external application of ABA. […] To test a function of HDC1 in this process seeds of A. thaliana wildtype, hdc1-1, and HDC1-0X lines were imbibed to break dormancy, and subsequently plated out on agar plates containing different concentrations of NaCl, mannitol, ABA or PAC. A cumulative germination rate (encompassing all post-imbibition stages of seedling development) was scored as the number of seedlings that had developed cotyledons after 6 days.
To test whether histone deactylation was required for ABA-dependence of seed germination and for the effect of HDC1 on this process, we subjected germinating seeds to the histone deacetylase inhibitor trichostatin A (TSA).

A. thaliana plants = system: A. thaliana plants
Protocol: as §1

[1] = target: T1, cYFP-HDA6 (C-terminal half of YFP fused to A. thaliana HISTONE DEACETYLASE 6) (Arabidopsis thaliana, UniProt Q9FML2 1-471); assay: ratiometric BiFC in tobacco leaf cells (nYFP-HDC1 with cYFP-HDA6)
T1 construct: expressed transiently in tobacco leaf cells; not shown: C-terminal half of YFP (cYFP) from vector pBiFCt-2in1-NN
T1 sequence (looked up): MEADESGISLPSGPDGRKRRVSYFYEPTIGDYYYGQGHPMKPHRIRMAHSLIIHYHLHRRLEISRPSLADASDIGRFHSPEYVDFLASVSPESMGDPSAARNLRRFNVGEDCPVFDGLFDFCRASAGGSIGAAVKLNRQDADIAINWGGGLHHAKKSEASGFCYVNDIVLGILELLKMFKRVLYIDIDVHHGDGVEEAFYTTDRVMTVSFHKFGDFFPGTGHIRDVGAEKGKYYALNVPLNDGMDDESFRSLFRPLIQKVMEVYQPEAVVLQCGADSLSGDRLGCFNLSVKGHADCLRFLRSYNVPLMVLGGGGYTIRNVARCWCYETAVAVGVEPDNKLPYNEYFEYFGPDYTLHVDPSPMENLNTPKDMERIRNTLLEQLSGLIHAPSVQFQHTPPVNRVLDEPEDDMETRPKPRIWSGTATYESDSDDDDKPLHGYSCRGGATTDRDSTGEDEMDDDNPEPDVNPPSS
Protocol: (§2) Fluorescence in tobacco epidermal cells was assessed two days post infiltration using a CLSM-510-META-UV confocal microscope (Zeiss, Jena). For single protein localization GFP fluorescence was excited at 488 nm with light from an Argon laser and collected after passage through an NFT545 dichroic mirror with a 505 nm long pass filter. For co-localization experiments GFP fluorescence was collected with a 505-530 band pass filter. RFP fluorescence was excited at 543 nm with light from a Helium Neon laser and was collected after passage through an NFT545 dichroic mirror and a 560-615 nm band pass filter. YFP fluorescence was excited at 514 nm with light from Argon laser and was collected using lambda mode between 520-550 nm. Co-localization plane and line scans were evaluated using Zeiss LSM 510 AIM software (v3.2).
(§3) To investigate whether HDC1 is a member of HDAC protein complexes in plants we tested co-localization and direct interaction of HDC1 with known HDACs of A. thaliana. […] Direct interaction was investigated by bimolecular fluorescence complementation (BiFC). To avoid misinterpretation of background fluorescence we used a new ratiometric BiFC assay (Grefen and Blatt, 2012, supra) in which N- and C-terminal halves of yellow fluorescent protein (YFP), fused to HDC1 and HDA6/19 respectively, and a full-length RFP, are expressed from a single vector FIG. 4A). […]

[2] = target: T2, cYFP-SIN3 (C-terminal half of YFP fused to A. thaliana Sin3-like protein 3) (Arabidopsis thaliana, UniProt O48686 1-1330); assay: ratiometric BiFC in tobacco leaf cells (nYFP-HDC1 with cYFP-SIN3)
T2 construct: negative control partner for nYFP-HDC1; also called AtSin3; SNL3; not shown: C-terminal half of YFP (cYFP) from vector pBiFCt-2in1-NN
T2 sequence (O48686 whole entry, the tested form may be a part): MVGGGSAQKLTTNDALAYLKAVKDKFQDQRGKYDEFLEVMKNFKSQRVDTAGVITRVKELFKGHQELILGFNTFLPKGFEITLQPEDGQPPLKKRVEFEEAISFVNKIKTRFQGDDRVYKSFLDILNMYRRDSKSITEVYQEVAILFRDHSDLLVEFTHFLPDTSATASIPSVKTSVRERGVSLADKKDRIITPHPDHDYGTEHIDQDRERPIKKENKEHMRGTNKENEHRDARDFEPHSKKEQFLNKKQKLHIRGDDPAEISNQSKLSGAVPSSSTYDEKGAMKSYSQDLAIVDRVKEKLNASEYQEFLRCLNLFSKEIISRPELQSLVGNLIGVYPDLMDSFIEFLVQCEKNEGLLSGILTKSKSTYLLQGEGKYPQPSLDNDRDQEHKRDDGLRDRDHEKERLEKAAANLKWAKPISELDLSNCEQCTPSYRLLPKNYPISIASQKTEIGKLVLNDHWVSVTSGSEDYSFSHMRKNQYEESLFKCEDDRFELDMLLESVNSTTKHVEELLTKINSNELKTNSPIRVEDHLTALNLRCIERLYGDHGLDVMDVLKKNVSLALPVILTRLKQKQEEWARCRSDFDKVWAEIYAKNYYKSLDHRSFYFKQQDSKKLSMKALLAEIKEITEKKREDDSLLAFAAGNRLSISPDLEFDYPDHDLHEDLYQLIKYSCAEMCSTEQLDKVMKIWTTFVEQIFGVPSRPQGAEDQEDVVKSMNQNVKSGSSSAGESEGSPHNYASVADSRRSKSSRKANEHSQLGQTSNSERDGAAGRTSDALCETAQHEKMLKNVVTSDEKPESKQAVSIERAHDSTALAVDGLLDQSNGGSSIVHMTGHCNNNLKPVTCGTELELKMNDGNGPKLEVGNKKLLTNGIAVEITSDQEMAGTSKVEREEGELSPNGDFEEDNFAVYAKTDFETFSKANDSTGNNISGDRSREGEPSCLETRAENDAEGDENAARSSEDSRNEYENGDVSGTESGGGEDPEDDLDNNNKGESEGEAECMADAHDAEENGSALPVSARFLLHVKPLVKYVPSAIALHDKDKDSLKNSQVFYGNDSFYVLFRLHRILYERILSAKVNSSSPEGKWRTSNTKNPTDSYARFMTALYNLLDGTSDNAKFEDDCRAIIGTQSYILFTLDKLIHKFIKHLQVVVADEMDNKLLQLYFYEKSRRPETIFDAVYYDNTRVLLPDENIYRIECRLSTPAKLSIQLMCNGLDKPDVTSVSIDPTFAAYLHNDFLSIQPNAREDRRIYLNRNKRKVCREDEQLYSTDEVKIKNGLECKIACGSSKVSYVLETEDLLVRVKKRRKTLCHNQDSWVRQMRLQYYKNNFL

[3] = target: B2; assay: ratiometric BiFC in tobacco leaf cells (nYFP-HDC1 with cYFP-HDA19)
Protocol: as §2, §3

[4] = target: T3, nYFP-SIN3 (N-terminal half of YFP fused to A. thaliana Sin3-like protein 3) (Arabidopsis thaliana, UniProt O48686 1-1330); assay: ratiometric BiFC in tobacco leaf cells (nYFP-SIN3 with cYFP-HDA19)
T3 construct: positive control partner for cYFP-HDA19; also called AtSin3; SNL3; not shown: N-terminal half of YFP (nYFP) from vector pBiFCt-2in1-NN
T3 sequence (O48686 whole entry, the tested form may be a part): as above

[5] = 150 mM NaCl for 24 hours, all lines

For CC(/C=C/C(=O)NO)=C\[C@@H](C)C(=O)c1ccc(N(C)C)cc1 [TSA, trichostatin A], the “effect on ABA-sensitivity of germination” value (A. thaliana seeds; HDC1-overexpressing lines) was “increased ABA-sensitivity”, the “effect on seed germination” value (A. thaliana seeds; low-micromolar TSA (0.3 or 3 μM), in the absence of ABA) was “no effect on seed germination” and the “effect on ABA-sensitivity of germination” value (A. thaliana seeds; wildtype plants, 0.3 μM TSA at 0.2 μM ABA) was “significant effect”. For the same molecule, the “effect on ABA-sensitivity of germination” value (A. thaliana seeds; wildtype plants, 3 μM TSA at 0.4 μM ABA) was “significant effect” and the “effect on ABA-sensitivity of germination” value (A. thaliana seeds; wildtype plants, dose-dependent) was “increased the ABA-sensitivity”.

With CC1=CC(=O)CC(C)(C)[C@@]1(O)/C=C/C(C)=C\C(=O)O [ABA, Abscisic acid] the cumulative germination rate (A. thaliana seeds) was “decrease in germination rates”.

CC(C)(C)[C@@H](O)[C@@H](Cc1ccc(Cl)cc1)n1cncn1 (racemic) [PAC, paclobutrazol] was tested, and the cumulative germination rate (A. thaliana seeds) was “decrease in germination rates”.

OC[C@@H](O)[C@@H](O)[C@H](O)[C@H](O)CO [mannitol] was tested, and the cumulative germination rate (A. thaliana seeds) was “decrease in germination rates”.

For [Cl-].[Na+] [NaCl], the cumulative germination rate (A. thaliana seeds) was “decrease in germination rates”, the chlorosis or desiccation (A. thaliana plants; 80 mM NaCl, 6 days) was “did not produce severe chlorosis or desiccation” and the growth (A. thaliana plants; 80 mM NaCl, 6 days, all lines) was “slowed growth”. The shoot water content (A. thaliana plants; 80 mM NaCl, after 6 days, all lines, from 92±1% without salt) was 86±1%, the “ABA biosynthesis (shoot ABA levels)” value (A. thaliana plants; [5]) was “efficiently induced” and the “transcript levels of ABA-receptor PYL4 and 'drought-repressed' gene DR4” value (A. thaliana plants; [5]) was “efficiently repressed”.

B1: nYFP-HDC1 (N-terminal half of YFP fused to full length A. thaliana HISTONE DEACETYLASE COMPLEX 1) (other)
chain: MSGVPKRSHEEGVTHPSSSSSVAKYPHEDSGSYPKSPHQPVTPPPAQVHHNHQQPHQHPQSQSQSQPQPHLQALPHPHSHSHSHSPLAAAASASAPYEVESRTVVKVARSEPRDGERRSPLPLVYRSPSLPTTVSSSDPHLTHAPVPMEPRDGAKDGREIRVESRENRSDGREIYGETKREIQGPKGDRDVKFERSVDDFSGKGNTGSYTRNDGREMYGETKREIQGPKSDRDAKFERPGDDFSGKSNAGSYTRDTKFDRENQNYNEQKGEIKMEKEGHAHLAWKEQKDYHRGKRVAEGSTANVDPWVVSRGNPQGPTEVGPKDLSAPVEGSHLEGRETVGENKVDAKNEDRFKEKDKKRKELKHREWGDRDKDRNDRRVSVLVGSVMSEPKEIGREERESDRWERERMEQKDRERNKEKDKDHIKREPRTGAEKEISQNEKELGEASAKPSEQEYVAPEQKKQNEPDNCEKDERETKEKRRERDGDSEAERAEKRSRISEKESEDGCLEGEGATEREKDAFNYGVQQRKRALRPRGSPQTTNRDNVRSRSQDNEGVQGKSEVSIVVYKVGECMQELIKLWKEYDLSHPDKSGDFANNGPTLEVRIPAEHVTATNRQVRGGQLWGTDIYTDDSDLVAVLMHTGYCRPTASPPPPTMQELRTTIRVLPSQDYYTSKLRNNVRSRAWGAGIGCSYRVERCYILKKGGGTIELEPSLTHSSTVEPTLAPMAVERSMTTRAAASNALRQQRFVREVTIQYNLCNEPWIKYSISIVADKGLKKPLFTSARLKKGEVLYLETHSCRYELCFAGEKTIKAIQASQQQSSHEAMETDNNNNKSQNHLTNGDKTDSDNSLIDVFRWSRCKKPLPQKLMRSIGFPLPADHIEVLEENLDWEDVQWSQTGVWIAGKEYTLARVHFLSPN
notes: Expressed transiently in tobacco leaf cells from a 2-in-1 BiFC vector together with the cYFP partner and a full-length RFP; not shown: N-terminal half of YFP (nYFP) from vector pBiFCt-2in1-NN
B1: binds [1]; no binding [2]; binds [3].

B2: binds [4].
